In ChEMBL document CHEMBL1201862, “PubChem BioAssay data set” (2004):
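96-well plates; 48 h exposure; 5 concentrations. Endpoints by linear interpolation between flanking doses. Not reached: highest tested concentration assigned. Here, GI50 denotes the concentration required for 50% inhibition of growth.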 The source made the active and inactive calls. No stated cut-off is given here; in the data, active = GI50 up to about 1.1 µM and inactive = higher.

Assays:
Experiment in all cases: NCI tumour cell line growth inhibition, 48 h
NCI-H522 = test system: NCI-H522
ACHN = test system: ACHN
OVCAR-8 = test system: OVCAR-8
SNB-19 = test system: SNB-19
SW-620 = test system: SW-620
NCI-H460 = test system: NCI-H460
TK-10 = test system: TK-10
CAKI-1 = test system: CAKI-1
SF-295 = test system: SF-295
NCI-H23 = test system: NCI-H23
Malme-3M = test system: Malme-3M
KM-20L2 = test system: KM-20L2
OVCAR-5 = test system: OVCAR-5
A549 = test system: A549
SK-OV-3 = test system: SK-OV-3
MOLT-4 = test system: MOLT-4
HCC 2998 = test system: HCC 2998
UACC-62 = test system: UACC-62
SF-268 = test system: SF-268
M14 = test system: M14
DLD-1 = test system: DLD-1
KM12 = test system: KM12
OVCAR-3 = test system: OVCAR-3
HL-60 = test system: HL-60
NCI-H226 = test system: NCI-H226
DMS-273 = test system: DMS-273
IGROV-1 = test system: IGROV-1
K562 = test system: K562
SK-MEL-2 = test system: SK-MEL-2
HOP-18 = test system: HOP-18
COLO 205 = test system: COLO 205
LOX IMVI = test system: LOX IMVI
UO-31 = test system: UO-31
RXF 393 = test system: RXF 393
HOP-92 = test system: HOP-92
HOP-62 = test system: HOP-62
A498 = test system: A498
LXFL 529 = test system: LXFL 529
SN12C = test system: SN12C
DMS-114 = test system: DMS-114
HCT-15 = test system: HCT-15
SK-MEL-28 = test system: SK-MEL-28
EKVX = test system: EKVX
SF-539 = test system: SF-539
SNB-75 = test system: SNB-75
HCT-116 = test system: HCT-116
786-0 = test system: 786-0
UACC-257 = test system: UACC-257
SK-MEL-5 = test system: SK-MEL-5
CCRF-CEM = test system: CCRF-CEM
OVCAR-4 = test system: OVCAR-4
HT-29 = test system: HT-29
U-251 = test system: U-251
M19-MEL = test system: M19-MEL
RPMI-8226 = test system: RPMI-8226
XF498 = test system: XF498

In the case of `COC(=O)CC(C(C(=O)OC)C(=O)OC)N1C(=O)OC(c2ccccc2)C1c1ccccc1` (stereo not given), the GI50 (NCI-H522) is reported as 69.5 µM (inactive), the GI50 (ACHN) is reported as > 100 µM (inactive) and the GI50 (OVCAR-8) is reported as > 100 µM (inactive). For the same compound, the GI50 (SNB-19) was > 100 µM (inactive), the GI50 (SW-620) was 26.1 µM (inactive) and the GI50 (NCI-H460) was 94.2 µM (inactive). The GI50 (TK-10) was > 100 µM (inactive), the GI50 (CAKI-1) was 19.3 µM (inactive) and the GI50 (SF-295) was > 100 µM (inactive). The GI50 (NCI-H23) was > 100 µM (inactive), the GI50 (Malme-3M) was > 100 µM (inactive) and the GI50 (KM-20L2) was > 100 µM (inactive). The GI50 (OVCAR-5) was > 100 µM (inactive), the GI50 (A549) was > 100 µM (inactive) and the GI50 (SK-OV-3) was > 100 µM (inactive). The GI50 (MOLT-4) was > 100 µM (inactive), the GI50 (HCC 2998) was 34 µM (inactive) and the GI50 (UACC-62) was > 100 µM (inactive). The GI50 (SF-268) was > 100 µM (inactive), the GI50 (M14) was > 100 µM (inactive) and the GI50 (DLD-1) was 68.5 µM (inactive). For the same compound, the GI50 (KM12) was > 100 µM (inactive), the GI50 (OVCAR-3) was > 100 µM (inactive) and the GI50 (HL-60) was 37 µM (inactive). The GI50 (NCI-H226) was > 100 µM (inactive), the GI50 (DMS-273) was > 100 µM (inactive) and the GI50 (IGROV-1) was > 100 µM (inactive). For the same compound, the GI50 (K562) was > 100 µM (inactive), the GI50 (SK-MEL-2) was > 100 µM (inactive) and the GI50 (HOP-18) was > 100 µM (inactive). The GI50 (COLO 205) was 86.9 µM (inactive), the GI50 (LOX IMVI) was 38.9 µM (inactive) and the GI50 (UO-31) was > 100 µM (inactive). The GI50 (RXF 393) was 74.5 µM (inactive), the GI50 (HOP-92) was > 100 µM (inactive) and the GI50 (HOP-62) was > 100 µM (inactive). For the same compound, the GI50 (A498) was > 100 µM (inactive), the GI50 (LXFL 529) was > 100 µM (inactive) and the GI50 (SN12C) was > 100 µM (inactive). The GI50 (DMS-114) was 45.6 µM (inactive), the GI50 (HCT-15) was 53.6 µM and the GI50 (SK-MEL-28) was > 100 µM (inactive). For the same compound, the GI50 (EKVX) was > 100 µM (inactive), the GI50 (SF-539) was > 100 µM (inactive) and the GI50 (SNB-75) was > 100 µM (inactive). For the same compound, the GI50 (HCT-116) was 95.9 µM (inactive), the GI50 (786-0) was > 100 µM (inactive) and the GI50 (UACC-257) was > 100 µM (inactive). For the same compound, the GI50 (SK-MEL-5) was > 100 µM (inactive), the GI50 (CCRF-CEM) was 63.1 µM (inactive) and the GI50 (OVCAR-4) was > 100 µM (inactive). The GI50 (HT-29) was > 100 µM (inactive), the GI50 (U-251) was 89.5 µM (inactive) and the GI50 (M19-MEL) was > 100 µM (inactive). For the same compound, the GI50 (RPMI-8226) was 45.6 µM (inactive).
`CCCCN(CCCC)CC(C(=O)Nc1ccc([N+](=O)[O-])cc1[N+](=O)[O-])/C(C)=N\NC(=S)NN` (stereo not given) was tested, and the GI50 (NCI-H522) was 25.5 µM (inactive), the GI50 (ACHN) was 56.6 µM (inactive) and the GI50 (OVCAR-8) was > 100 µM (inactive). For the same compound, the GI50 (SW-620) was > 100 µM (inactive), the GI50 (NCI-H460) was > 100 µM (inactive) and the GI50 (TK-10) was > 100 µM (inactive). The GI50 (SF-295) was > 100 µM (inactive), the GI50 (NCI-H23) was > 100 µM (inactive) and the GI50 (Malme-3M) was > 100 µM (inactive). The GI50 (KM-20L2) was > 100 µM (inactive), the GI50 (OVCAR-5) was > 100 µM (inactive) and the GI50 (A549) was > 100 µM (inactive). For the same compound, the GI50 (SK-OV-3) was > 100 µM (inactive), the GI50 (MOLT-4) was 70 µM (inactive) and the GI50 (HCC 2998) was > 100 µM (inactive). The GI50 (UACC-62) was > 100 µM (inactive), the GI50 (SF-268) was > 100 µM (inactive) and the GI50 (M14) was > 100 µM (inactive). For the same compound, the GI50 (DLD-1) was > 100 µM (inactive), the GI50 (KM12) was > 100 µM (inactive) and the GI50 (OVCAR-3) was 84.3 µM (inactive). The GI50 (HL-60) was 46 µM (inactive), the GI50 (NCI-H226) was > 100 µM (inactive) and the GI50 (DMS-273) was > 100 µM (inactive). For the same compound, the GI50 (IGROV-1) was > 100 µM (inactive), the GI50 (K562) was 40.7 µM (inactive) and the GI50 (SK-MEL-2) was > 100 µM (inactive). For the same compound, the GI50 (COLO 205) was > 100 µM (inactive), the GI50 (LOX IMVI) was > 100 µM (inactive) and the GI50 (UO-31) was 26.9 µM (inactive). For the same compound, the GI50 (RXF 393) was 96.2 µM (inactive), the GI50 (HOP-92) was 42.1 µM (inactive) and the GI50 (HOP-62) was > 100 µM (inactive). For the same compound, the GI50 (A498) was > 100 µM (inactive), the GI50 (LXFL 529) was > 100 µM (inactive) and the GI50 (DMS-114) was > 100 µM (inactive). For the same compound, the GI50 (SK-MEL-28) was > 100 µM (inactive), the GI50 (EKVX) was 65.6 µM (inactive) and the GI50 (XF498) was > 100 µM (inactive). For the same compound, the GI50 (SF-539) was > 100 µM (inactive), the GI50 (SNB-75) was > 100 µM (inactive) and the GI50 (HCT-116) was > 100 µM (inactive). The GI50 (786-0) was > 100 µM (inactive), the GI50 (UACC-257) was > 100 µM (inactive) and the GI50 (SK-MEL-5) was > 100 µM (inactive). For the same compound, the GI50 (CCRF-CEM) was 49.4 µM (inactive), the GI50 (HT-29) was > 100 µM (inactive) and the GI50 (U-251) was > 100 µM (inactive). The GI50 (M19-MEL) was > 100 µM (inactive) and the GI50 (RPMI-8226) was 50.1 µM (inactive).
